Results: patent publication US4985434A, “7-substituted derivatives of 2-amino-3H,5H-pyrrolo(3,2-d)pyrimidin-4-ones and pharamceutical uses and compositions containing the same” (Biocryst, Inc., priority 1989, dated 1991)
Read-outs that look alike come from different tables or passages of the source.

Assays:
[1] = system: plasma inosine; assay: plasma inosine in Lewis Rats after intraperitoneal injection (HPLC); format: in vivo; details: 30 mg (IA), twice per day, 10% DMSO aqueous carrier, vs vehicle controls, other compounds per procedure of Example 16
Protocol: A pharmaceutical composition for intraperitoneal injection is prepared for testing the compound (IA). An intraperitoneal injection solution containing the compound (IA) is dissolved in an aqueous carrier that contains ten percent DMSO.
The compound (IA) is intraperitoneally injected into Lewis Rats via the test composition of Example 15 to provide 30 mg of the compound (IA), with an injection given twice per day. Controls are used, which receive only the vehicle. At specific times after administration, the animals are sacrificed and plasma samples are prepared. The plasma is extracted with cold 0.5N HClO4 and neutralized with solid NH4 HCO3. After removal of perchlorate salts, the extract is subjected to HPLC on a reversed phase column (Spherisorb ODSI).
Compounds prepared as in Examples 10-14 are each made into a pharmaceutical formulation in accordance with the preparation of Example 15 and the resultant injectable solutions are tested in accordance with the procedure of Example 16.

[2] = target: T1, purine nucleoside phosphorylase (PNP) (Bos taurus, UniProt P55859); assay: PNP enzyme assay, radiochemical formation of [14C]-hypoxanthine from [14C]-inosine, calf spleen enzyme; format: biochemical; details: for enzyme-inhibition activity: tested as in Example 8
T1 construct: using calf spleen as the enzyme source; from tissue; host or cells: calf spleen
T1 sequence (P55859 1-289): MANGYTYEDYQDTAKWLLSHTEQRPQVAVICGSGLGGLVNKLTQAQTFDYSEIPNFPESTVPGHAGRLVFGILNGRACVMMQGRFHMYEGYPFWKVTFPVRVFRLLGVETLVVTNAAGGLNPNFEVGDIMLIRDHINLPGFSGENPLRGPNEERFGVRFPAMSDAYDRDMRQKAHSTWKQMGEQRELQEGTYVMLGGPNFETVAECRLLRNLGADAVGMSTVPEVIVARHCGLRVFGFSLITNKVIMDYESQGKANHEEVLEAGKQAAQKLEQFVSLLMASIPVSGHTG

Q: For `Nc1nc2c(C3=CCCCC3)c[nH]c2c(=O)[nH]1` [IA, 2-amino-7-(1-cyclohexenyl)-3H,5H-pyrrolo [3,2-d]pyrimidin-4-one], which “increase in plasma inosine” value [1] is on record?
A: significant increase in plasma inosine

Q: With `Nc1nc2c(C3C=CCCC3)c[nH]c2c(=O)[nH]1` (centres unmarked) [IB, 2-amino-7-(2-cyclohexenyl)-3H, 5H-pyrrolo[3,2-d]pyrimidin-4-one] as the compound, how does the enzyme-inhibition activity ([2]; calf spleen PNP) read?
A: significant enzyme-inhibition activity

Q: How did the enzyme-inhibition activity ([2]; calf spleen PNP) turn out when `Nc1nc2c(C3CC=CCC3)c[nH]c2c(=O)[nH]1` (centres unmarked) [IC, 2-amino-7-(3-cyclohexenyl)-3H, 5H-pyrrolo[3,2-d]-pyrimidin-4-one] was run?
A: significant enzyme-inhibition activity

Q: With `Nc1nc2c(C3CCCCC3)c[nH]c2c(=O)[nH]1` [ID, 2-amino-7-(cyclohexyl)-3H,5H-pyrrolo[3,2-d]-pyrimidin-4-one] as the compound, how does the IC50 [2] read?
A: 145 µM

Q: And the IC50 ([2]; 1 mM phosphate, calf spleen PNP, read-out: IC50)?
A: 1.3 µM
